US12336981B2, “Compounds and compositions for the inhibition of NAMPT” (Valo Health, Inc., priority 2010, dated 2025)
Where two headings read alike, the source gives them in different places.

Tests used:
A2780 cells = experiment: In-vitro cell proliferation assay (SRB), A2780 cells; format: cell-based; conditions: Homo sapiens, A2780, 72 h, A2780 cells, 72 hours, read-out: A2780 IC50
In short: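 Read-out is SRB absorbance at 570 nm on TCA-fixed cells after 72 hours of compound treatment at 37° C. in 5% CO2. Background from a media-only plate is subtracted, and % inhibition is interpolated between two tested concentrations.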

NAMPT = target: T1, NAMPT (Homo sapiens, UniProt P43490); experiment: Biochemical inhibition assay: NAMPT enzymatic reaction, NMN quantified by mass spectrometry; conditions: NAMPT enzymatic reaction; read-out: Biochem IC50
T1 construct: His tag; host or cells: E. coli
In short: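 Inhibition of E. coli-expressed His-tagged human NAMPT, measured as NMN formation by mass spectrometry after a 30 min room-temperature reaction containing 1 μM NAM, 100 μM PRPP and 2.5 mM ATP.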

T1 sequence (P43490 whole entry): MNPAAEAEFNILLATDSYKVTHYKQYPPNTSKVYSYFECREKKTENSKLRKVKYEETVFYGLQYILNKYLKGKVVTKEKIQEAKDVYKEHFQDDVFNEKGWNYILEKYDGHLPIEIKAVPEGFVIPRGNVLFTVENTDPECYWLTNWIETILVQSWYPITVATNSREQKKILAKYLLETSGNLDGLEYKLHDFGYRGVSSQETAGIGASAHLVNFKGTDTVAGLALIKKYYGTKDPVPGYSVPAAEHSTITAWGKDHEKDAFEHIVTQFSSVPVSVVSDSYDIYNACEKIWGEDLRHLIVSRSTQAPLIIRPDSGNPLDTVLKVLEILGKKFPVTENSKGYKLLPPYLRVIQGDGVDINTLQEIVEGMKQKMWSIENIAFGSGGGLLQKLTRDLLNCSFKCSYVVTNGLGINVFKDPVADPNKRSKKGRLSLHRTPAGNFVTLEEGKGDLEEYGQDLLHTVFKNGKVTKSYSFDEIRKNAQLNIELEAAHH

CCCCOc1ccc(S(=O)(=O)c2ccc(CNC(=O)c3cc4cnccc4[nH]3)cc2)cc1 [N-({4-[(4-butoxybenzene)sulfonyl]phenyl}methyl)-1H-pyrrolo[3,2-c]pyridine-2-carboxamide]
IC50 (A2780 cells; SRB): 17.1 nM
IC50 (NAMPT): 8.4 nM

CCCCOc1ccc(S(=O)(=O)c2ccc(CNC(=O)c3cc4ccncc4o3)cc2)cc1 [N-({4-[(4-butoxybenzene)sulfonyl]phenyl}methyl)furo[2,3-c]pyridine-2-carboxamide]
IC50 (A2780 cells; SRB): 13 nM
IC50 (NAMPT): 6.2 nM

CCCCc1ccc(S(=O)(=O)c2ccc(CNC(=O)c3cnc4[nH]ncc4c3)cc2)cc1 [N-({4-[(4-butylbenzene)sulfonyl]phenyl}methyl)-1H-pyrazolo[3,4-b]pyridine-5-carboxamide]
IC50 (A2780 cells; SRB): 68.4 nM
IC50 (NAMPT): 71.2 nM

CCCCc1ccc(S(=O)(=O)c2ccc(CNC(=O)c3cc4ccncc4o3)cc2)cc1 [N-({4-[(4-butylbenzene)sulfonyl]phenyl}methyl)furo[2,3-c]pyridine-2-carboxamide]
IC50 (A2780 cells; SRB): 26.5 nM
IC50 (NAMPT): 18.1 nM

COc1cc(Cl)c(C)cc1NS(=O)(=O)c1ccc(CNC(=O)c2cc3cnccc3[nH]2)cc1 [N-({4-[(4-chloro-2-methoxy-5-methylphenyl)sulfamoyl]phenyl}methyl)-1H-pyrrolo[3,2-c]pyridine-2-carboxamide]
IC50 (A2780 cells; SRB assay): 18300 nM
IC50 (NAMPT): 7840 nM

COc1cc(Cl)ccc1S(=O)(=O)c1ccc(CNC(=O)c2cc3cnccc3[nH]2)cc1 [N-({4-[(4-chloro-2-methoxybenzene)sulfonyl]phenyl}methyl)-1H-pyrrolo[3,2-c]pyridine-2-carboxamide]
IC50 (A2780 cells; SRB assay): 3 nM
IC50 (NAMPT): 22 nM

COc1cc(Cl)ccc1S(=O)(=O)c1ccc(CNC(=O)c2ccc3nccn3c2)cc1 [N-({4-[(4-chloro-2-methoxybenzene)sulfonyl]phenyl}methyl)imidazo[1,2-a]pyridine-6-carboxamide]
IC50 (A2780 cells; SRB): 12.6 nM
IC50 (NAMPT): 18.7 nM

COc1cc(Cl)ccc1S(=O)(=O)c1ccc(CNC(=O)c2cc3ccncc3s2)cc1 [N-({4-[(4-chloro-2-methoxybenzene)sulfonyl]phenyl}methyl)thieno[2,3-c]pyridine-2-carboxamide]
IC50 (A2780 cells; SRB assay): 3.8 nM
IC50 (NAMPT): 10 nM

Cc1cc(Cl)ccc1S(=O)(=O)c1ccc(CNC(=O)c2cnc3[nH]ncc3c2)cc1 [N-({4-[(4-chloro-2-methylbenzene)sulfonyl]phenyl}methyl)-1H-pyrazolo[3,4-b]pyridine-5-carboxamide]
IC50 (A2780 cells; SRB): 58.7 nM
IC50 (NAMPT): 77.5 nM

Cc1cc(Cl)ccc1S(=O)(=O)c1ccc(CNC(=O)c2cc3cnccc3[nH]2)cc1 [N-({4-[(4-chloro-2-methylbenzene)sulfonyl]phenyl}methyl)-1H-pyrrolo[3,2-c]pyridine-2-carboxamide]
IC50 (A2780 cells; SRB assay): 25 nM
IC50 (NAMPT): 27 nM

Cc1cc(Cl)ccc1S(=O)(=O)c1ccc(CNC(=O)c2cc3ccncc3o2)cc1 [N-({4-[(4-chloro-2-methylbenzene)sulfonyl]phenyl}methyl)furo[2,3-c]pyridine-2-carboxamide]
IC50 (A2780 cells; SRB): 64.7 nM
IC50 (NAMPT): 24.9 nM

O=C(NCc1ccc(S(=O)(=O)c2ccc(Cl)c(F)c2)cc1)c1cc2cnccc2[nH]1 [N-({4-[(4-chloro-3-fluorobenzene)sulfonyl]phenyl}methyl)-1H-pyrrolo[3,2-c]pyridine-2-carboxamide]
IC50 (A2780 cells; SRB assay): 13 nM
IC50 (NAMPT): 8 nM

O=C(NCc1ccc(S(=O)(=O)c2ccc(Cl)c(F)c2)cc1)c1ccc2nccn2c1 [N-({4-[(4-chloro-3-fluorobenzene)sulfonyl]phenyl}methyl)imidazo[1,2-a]pyridine-6-carboxamide]
IC50 (A2780 cells; SRB): 7.24 nM
IC50 (NAMPT): 7.22 nM

O=C(NCc1ccc(S(=O)(=O)c2ccc(Cl)c(F)c2)cc1)c1cc2ccncc2s1 [N-({4-[(4-chloro-3-fluorobenzene)sulfonyl]phenyl}methyl)thieno[2,3-c]pyridine-2-carboxamide]
IC50 (A2780 cells; SRB assay): 7.1 nM
IC50 (NAMPT): 3 nM

COc1cc(S(=O)(=O)c2ccc(CNC(=O)c3cc4ccncc4o3)cc2)ccc1Cl [N-({4-[(4-chloro-3-methoxybenzene)sulfonyl]phenyl}methyl)furo[2,3-c]pyridine-2-carboxamide]
IC50 (A2780 cells; SRB): 6 nM
IC50 (NAMPT): 5.9 nM

O=C(NCc1ccc(S(=O)(=O)c2ccc(Cl)cc2)cc1)c1cnc2[nH]ncc2c1 [N-({4-[(4-chlorobenzene)sulfonyl]phenyl}methyl)-1H-pyrazolo[3,4-b]pyridine-5-carboxamide]
IC50 (A2780 cells; SRB): 22 nM
IC50 (NAMPT): 28.8 nM

O=C(NCc1ccc(S(=O)(=O)c2ccc(Cl)cc2)cc1)c1cc2cnccc2[nH]1 [N-({4-[(4-chlorobenzene)sulfonyl]phenyl}methyl)-1H-pyrrolo[3,2-c]pyridine-2-carboxamide]
IC50 (A2780 cells; SRB assay): 25 nM
IC50 (NAMPT): 9 nM

O=C(NCc1ccc(S(=O)(=O)c2ccc(Cl)cc2)cc1)c1cc2ccncc2o1 [N-({4-[(4-chlorobenzene)sulfonyl]phenyl}methyl)furo[2,3-c]pyridine-2-carboxamide]
IC50 (A2780 cells; SRB): 14.2 nM
IC50 (NAMPT): 4.9 nM

N#Cc1ccc(S(=O)(=O)c2ccc(CNC(=O)c3cnc4[nH]ncc4c3)cc2)cc1 [N-({4-[(4-cyanobenzene)sulfonyl]phenyl}methyl)-1H-pyrazolo[3,4-b]pyridine-5-carboxamide]
IC50 (A2780 cells; SRB): 20.8 nM
IC50 (NAMPT): 28.4 nM

N#Cc1ccc(S(=O)(=O)c2ccc(CNC(=O)c3cc4cnccc4[nH]3)cc2)cc1 [N-({4-[(4-cyanobenzene)sulfonyl]phenyl}methyl)-1H-pyrrolo[3,2-c]pyridine-2-carboxamide]
IC50 (A2780 cells; SRB): 25.1 nM
IC50 (NAMPT): 11.1 nM

N#Cc1ccc(S(=O)(=O)c2ccc(CNC(=O)c3cc4ccncc4o3)cc2)cc1 [N-({4-[(4-cyanobenzene)sulfonyl]phenyl}methyl)furo[2,3-c]pyridine-2-carboxamide]
IC50 (A2780 cells; SRB): 30.9 nM
IC50 (NAMPT): 5.3 nM

CCOc1ccc(NS(=O)(=O)c2ccc(CNC(=O)c3cc4cnccc4[nH]3)cc2)c(F)c1 [N-({4-[(4-ethoxy-2-fluorophenyl)sulfamoyl]phenyl}methyl)-1H-pyrrolo[3,2-c]pyridine-2-carboxamide]
IC50 (A2780 cells; SRB assay): 1600 nM
IC50 (NAMPT): 154 nM

CCOc1ccc(S(=O)(=O)c2ccc(CNC(=O)c3cnc4nccn4c3)cc2)c(C)c1 [N-({4-[(4-ethoxy-2-methylbenzene)sulfonyl]phenyl}methyl)imidazo[1,2-a]pyrimidine-6-carboxamide]
IC50 (A2780 cells; SRB): 60.7 nM
IC50 (NAMPT): 11.7 nM

CCOc1ccc(S(=O)(=O)c2ccc(CNC(=O)c3cc4ccncc4o3)cc2)cc1 [N-({4-[(4-ethoxybenzene)sulfonyl]phenyl}methyl)furo[2,3-c]pyridine-2-carboxamide]
IC50 (A2780 cells; SRB): 7.1 nM
IC50 (NAMPT): 2.5 nM

CCc1ccc(S(=O)(=O)c2ccc(CNC(=O)c3cc4cnccc4[nH]3)cc2)cc1 [N-({4-[(4-ethylbenzene)sulfonyl]phenyl}methyl)-1H-pyrrolo[3,2-c]pyridine-2-carboxamide]
IC50 (A2780 cells; SRB assay): 12 nM
IC50 (NAMPT): 8 nM

CCc1ccc(S(=O)(=O)c2ccc(CNC(=O)c3cc4ccncc4o3)cc2)cc1 [N-({4-[(4-ethylbenzene)sulfonyl]phenyl}methyl)furo[2,3-c]pyridine-2-carboxamide]
IC50 (A2780 cells; SRB): 7 nM
IC50 (NAMPT): 5 nM

CCc1ccc(S(=O)(=O)c2ccc(CNC(=O)c3ccc4nccn4c3)cc2)cc1 [N-({4-[(4-ethylbenzene)sulfonyl]phenyl}methyl)imidazo[1,2-a]pyridine-6-carboxamide]
IC50 (A2780 cells; SRB): 7.36 nM
IC50 (NAMPT): 16.5 nM

CCc1ccc(S(=O)(=O)c2ccc(CNC(=O)c3cc4ccncc4s3)cc2)cc1 [N-({4-[(4-ethylbenzene)sulfonyl]phenyl}methyl)thieno[2,3-c]pyridine-2-carboxamide]
IC50 (A2780 cells; SRB assay): 7.8 nM
IC50 (NAMPT): 6 nM

Cc1cc(S(=O)(=O)c2ccc(CNC(=O)c3cnc4[nH]ncc4c3)cc2)c(C)cc1F [N-({4-[(4-fluoro-2,5-dimethylbenzene)sulfonyl]phenyl}methyl)-1H-pyrazolo[3,4-b]pyridine-5-carboxamide]
IC50 (A2780 cells; SRB): 45.9 nM
IC50 (NAMPT): 37.3 nM

Cc1cc(S(=O)(=O)c2ccc(CNC(=O)c3cc4ccncc4s3)cc2)c(C)cc1F [N-({4-[(4-fluoro-2,5-dimethylbenzene)sulfonyl]phenyl}methyl)thieno[2,3-c]pyridine-2-carboxamide]
IC50 (A2780 cells; SRB): 13.6 nM
IC50 (NAMPT): 4.2 nM

COc1cc(F)ccc1S(=O)(=O)c1ccc(CNC(=O)c2cnc3[nH]ncc3c2)cc1 [N-({4-[(4-fluoro-2-methoxybenzene)sulfonyl]phenyl}methyl)-1H-pyrazolo[3,4-b]pyridine-5-carboxamide]
IC50 (A2780 cells; SRB): 74.2 nM
IC50 (NAMPT): 159 nM

COc1cc(F)ccc1S(=O)(=O)c1ccc(CNC(=O)c2cc3cnccc3[nH]2)cc1 [N-({4-[(4-fluoro-2-methoxybenzene)sulfonyl]phenyl}methyl)-1H-pyrrolo[3,2-c]pyridine-2-carboxamide]
IC50 (A2780 cells; SRB assay): 7 nM
IC50 (NAMPT): 31 nM

COc1cc(F)ccc1S(=O)(=O)c1ccc(CNC(=O)c2ccc3nccn3c2)cc1 [N-({4-[(4-fluoro-2-methoxybenzene)sulfonyl]phenyl}methyl)imidazo[1,2-a]pyridine-6-carboxamide]
IC50 (A2780 cells; SRB): 7.05 nM
IC50 (NAMPT): 19.3 nM

COc1cc(F)ccc1S(=O)(=O)c1ccc(CNC(=O)c2cc3ccncc3s2)cc1 [N-({4-[(4-fluoro-2-methoxybenzene)sulfonyl]phenyl}methyl)thieno[2,3-c]pyridine-2-carboxamide]
IC50 (A2780 cells; SRB assay): 6.5 nM
IC50 (NAMPT): 9 nM

COc1cc(F)ccc1NS(=O)(=O)c1ccc(CNC(=O)c2cc3cnccc3[nH]2)cc1 [N-({4-[(4-fluoro-2-methoxyphenyl)sulfamoyl]phenyl}methyl)-1H-pyrrolo[3,2-c]pyridine-2-carboxamide]
IC50 (A2780 cells; SRB assay): > 30000 nM
IC50 (NAMPT): 3140 nM

Cc1cc(F)ccc1S(=O)(=O)c1ccc(CNC(=O)c2cnc3[nH]ncc3c2)cc1 [N-({4-[(4-fluoro-2-methylbenzene)sulfonyl]phenyl}methyl)-1H-pyrazolo[3,4-b]pyridine-5-carboxamide]
IC50 (A2780 cells; SRB): 98.3 nM
IC50 (NAMPT): 78.8 nM
